The source of these data is ChEMBL document CHEMBL1128944, “Potent cyclic urea HIV protease inhibitors with benzofused heterocycles as P2/P2 groups” (Bioorg Med Chem Lett, 1996).

For series [1], the target named is Human immunodeficiency virus type 1 protease (Human immunodeficiency virus 1) (UniProt Q72874). Briefly: Inhibitory activity against HIV-1 RF infected MT-2 cells. It counts as functional, cell-based. The settings on record: MT2.
Series [2] deals with Human immunodeficiency virus type 1 protease (Human immunodeficiency virus 1, UniProt Q72874). Briefly: Inhibitory activity was evaluated against HIV protease.
A short description of series [3]: Plasma Clearance was evaluated in rats, iv. Type of series: ADME, organism-based. Conditions: rat.
A short description of series [4]: Half life period was evaluated in dog. It counts as ADME, organism-based, Canis lupus familiaris. The settings on record: in vivo.
Series [5] can be described thus: Half life period was evaluated in rats. Type of series: ADME, organism-based. Conditions: rat, in vivo.
A short description of series [6]: Maximum concentration was evaluated in dog plasma. Type of series: ADME, organism-based, Canis lupus familiaris.
Series [7] in a line: Clearance value was evaluated in dog plasma. It counts as ADME, organism-based, Canis lupus familiaris.
A short description of series [8]: Bioavailability was evaluated in dog. Conditions: in vivo. It counts as ADME, organism-based, Canis lupus familiaris.

Each structure is given as a SMILES string. Where only a bound is given, the exact number is not on record here.

Turning to `Nc1nc2cc(CN3C(=O)N(Cc4ccc5sc(N)nc5c4)[C@H](Cc4ccccc4)[C@H](O)[C@@H](O)[C@H]3Cc3ccccc3)ccc2s1`, it took 950 nM to reach the 90% level in series [1] (IC90). The Ki in series [2] was determined as 190 nM.

For `O=C1N(Cc2ccc3scnc3c2)[C@H](Cc2ccccc2)[C@H](O)[C@@H](O)[C@@H](Cc2ccccc2)N1Cc1ccc2scnc2c1`, the IC90 in series [1] was determined as 3200 nM. The same molecule gave a Ki in series [2] of 28 nM.

Molecule `O=C1N(Cc2ccc3nc(O)oc3c2)[C@H](Cc2ccccc2)[C@H](O)[C@@H](O)[C@@H](Cc2ccccc2)N1Cc1ccc2nc(O)oc2c1` returned an IC90 in series [1] of 40 nM. The molecule further displayed a Ki in series [2] of 0.18 nM.

In series [1], `O=C1N(Cc2ccc3[nH]ccc3c2)[C@H](Cc2ccccc2)[C@H](O)[C@@H](O)[C@@H](Cc2ccccc2)N1Cc1ccc2[nH]ccc2c1` came in with an IC90 of 190 nM. This molecule returned a Ki in series [2] of 1.3 nM.

As to `O=C1N(Cc2ccc3oc(O)nc3c2)[C@H](Cc2ccccc2)[C@H](O)[C@@H](O)[C@@H](Cc2ccccc2)N1Cc1ccc2oc(O)nc2c1`, it took 579 nM to reach the 90% level in series [1] (IC90). Moreover, the affinity in series [2] corresponds to a Ki of 3.9 nM.

With `O=C1N(Cc2ccc3nc(O)cnc3c2)[C@H](Cc2ccccc2)[C@H](O)[C@@H](O)[C@@H](Cc2ccccc2)N1Cc1ccc2nc(O)cnc2c1`, in series [1], the IC90 is 7800 nM. This molecule displayed a Ki in series [2] of 490 nM.

`O=C1N(Cc2ccc3[nH]nnc3c2)[C@H](Cc2ccccc2)[C@H](O)[C@@H](O)[C@@H](Cc2ccccc2)N1Cc1ccc2[nH]nnc2c1`: it took 530 nM to reach the 90% level in series [1] (IC90).

Take `O=C1N(Cc2ccc3[nH]c(O)nc3c2)[C@H](Cc2ccccc2)[C@H](O)[C@@H](O)[C@@H](Cc2ccccc2)N1Cc1ccc2[nH]c(O)nc2c1`: the IC90 in series [1] was over 65000 nM. The molecule further showed a Ki in series [2] of under 0.01 nM.

The molecule `O=C1N(Cc2ccc3nc(O)sc3c2)[C@H](Cc2ccccc2)[C@H](O)[C@@H](O)[C@@H](Cc2ccccc2)N1Cc1ccc2nc(O)sc2c1` returned an IC90 in series [1] of 109 nM. The Ki in series [2] is 0.91 nM.

Take `Nc1nc2ccc(CN3C(=O)N(Cc4ccc5nc(N)oc5c4)[C@H](Cc4ccccc4)[C@H](O)[C@@H](O)[C@H]3Cc3ccccc3)cc2o1`: in series [1], it took 84 nM to reach the 90% level (IC90). For the same molecule, the Ki in series [2] is 0.2 nM.

Regarding `O=C1Cc2cc(CN3C(=O)N(Cc4ccc5c(c4)CC(=O)N5)[C@H](Cc4ccccc4)[C@H](O)[C@@H](O)[C@H]3Cc3ccccc3)ccc2N1`, it took 370 nM to reach the 90% level in series [1] (IC90). This molecule gave a Ki in series [2] of 0.14 nM.

The molecule `O=C1N(Cc2ccc3c(c2)NS(=O)(=O)N3)[C@H](Cc2ccccc2)[C@H](O)[C@@H](O)[C@@H](Cc2ccccc2)N1Cc1ccc2c(c1)NS(=O)(=O)N2` returned an IC90 in series [1] of 32000 nM. In addition, the affinity in series [2] corresponds to a Ki of 0.19 nM.

`Nc1nc2cc(CN3C(=O)N(Cc4ccc5[nH]c(N)nc5c4)[C@H](Cc4ccccc4)[C@H](O)[C@@H](O)[C@H]3Cc3ccccc3)ccc2[nH]1` returned an IC90 in series [1] of 8100 nM. Moreover, the affinity in series [2], expressed as Ki, was 5.8 nM.

The molecule `O=C1CNc2cc(CN3C(=O)N(Cc4ccc5c(c4)NCC(=O)N5)[C@H](Cc4ccccc4)[C@H](O)[C@@H](O)[C@H]3Cc3ccccc3)ccc2N1` registered an IC90 in series [1] of 7700 nM. The Ki in series [2] is 6.1 nM.

For the molecule `O=C1N(Cc2ccc(CO)cc2)[C@H](Cc2ccccc2)[C@H](O)[C@@H](O)[C@@H](Cc2ccccc2)N1Cc1ccc(CO)cc1` [DMP-323], it took 100 nM to reach the 90% level in series [1] (IC90). The clearance in series [3] was 118 mL/min/kg.

For the molecule `O=C1N(Cc2ccc3sc(O)nc3c2)[C@H](Cc2ccccc2)[C@H](O)[C@@H](O)[C@@H](Cc2ccccc2)N1Cc1ccc2sc(O)nc2c1`, the Ki in series [2] is 130 nM.

The molecule `O=C1N(Cc2ccc3ncoc3c2)[C@H](Cc2ccccc2)[C@H](O)[C@@H](O)[C@@H](Cc2ccccc2)N1Cc1ccc2ncoc2c1` had an IC90 in series [1] of 440 nM. For the same molecule, the Ki in series [2] came to 3.4 nM.

Turning to `O=C1N(Cc2ccc3nn[nH]c3c2)[C@H](Cc2ccccc2)[C@H](O)[C@@H](O)[C@@H](Cc2ccccc2)N1Cc1ccc2nn[nH]c2c1`, the affinity in series [2], expressed as Ki, was 0.09 nM.

`O=C1Nc2ccc(CN3C(=O)N(Cc4ccc5c(c4)C(=O)C(=O)N5)[C@H](Cc4ccccc4)[C@H](O)[C@@H](O)[C@H]3Cc3ccccc3)cc2C1=O` returned an IC90 in series [1] of 8500 nM. This molecule came in with a Ki in series [2] of 0.81 nM.

In the case of `Nc1nc2ccc(CN3C(=O)N(Cc4ccc5nc(N)sc5c4)[C@H](Cc4ccccc4)[C@H](O)[C@@H](O)[C@H]3Cc3ccccc3)cc2s1`, the IC90 in series [1] worked out at 270 nM. Moreover, the affinity in series [2], expressed as Ki, was 5.7 nM.

With `O=C1N(Cc2ccc3[nH]cnc3c2)[C@H](Cc2ccccc2)[C@H](O)[C@@H](O)[C@@H](Cc2ccccc2)N1Cc1ccc2[nH]cnc2c1`, the IC90 in series [1] was found to be 19000 nM. The same molecule gave a Ki in series [2] of 11 nM.

Regarding `O=C1N(Cc2ccc3[nH]ncc3c2)[C@H](Cc2ccccc2)[C@H](O)[C@@H](O)[C@@H](Cc2ccccc2)N1Cc1ccc2[nH]ncc2c1`, the IC90 in series [1] was found to be 8 nM. Also, the half-life in series [4] was 2 h; in series [5], 2.7 h. Besides, the clearance in series [3] was 3.33 mL/min/kg; in series [7], 18.3 mL/min/kg. Further, the Cmax in series [6] is 600 ng/mL. The same molecule had a bioavailability in series [8] of 13%. The molecule also returned a Ki in series [2] of 0.018 nM.

With `O=C1N(Cc2ccc3nc(S)oc3c2)[C@H](Cc2ccccc2)[C@H](O)[C@@H](O)[C@@H](Cc2ccccc2)N1Cc1ccc2nc(S)oc2c1`, in series [1], the IC90 was 5100 nM. In series [2], this molecule returned a Ki of 4.8 nM.

For `O=C1N(Cc2ccc3c[nH]nc3c2)[C@H](Cc2ccccc2)[C@H](O)[C@@H](O)[C@@H](Cc2ccccc2)N1Cc1ccc2c[nH]nc2c1`, the IC90 in series [1] turned out to be 49 nM. The molecule further showed a Ki in series [2] of 0.018 nM.

By IC90 is commonly meant the concentration needed for an effect of 90%. Low readings indicate an effect from little substance, high ones a need for much substance. As usually defined, the Ki is the dissociation constant of the complex between target and ligand, obtained from inhibition or displacement. Low values mean a stronger hold on the target, high ones a looser hold on the target. Broadly, the clearance is a measure of how efficiently the substance is removed, as volume per time. Low values mean a low capacity for elimination, high ones a high capacity for elimination. As a reminder, the half-life is how long it takes for the measured level to halve. A word on the Cmax: it is the highest concentration seen after dosing. Usually bioavailability stands for the share of a dose that reaches the circulation, judged against a reference dose that is usually intravenous.
